Experimental data from paper PMC8830175, “Bex1 is essential for ciliogenesis and harbours biomolecular condensate-forming capacity” (BMC Biology, 2022).

Target: T1, Bex1 (recombinant Bex1 protein) (Mus musculus, UniProt Q9R224)
T1 construct: N-terminal hexahistidine tag (pETDuet-1), expressed in E. coli Rosetta-gami 2(DE3)pLysS, non-denaturing Ni-NTA purification, 15N-labelled; tag removal not mentioned
T1 sequence (Q9R224 1-128): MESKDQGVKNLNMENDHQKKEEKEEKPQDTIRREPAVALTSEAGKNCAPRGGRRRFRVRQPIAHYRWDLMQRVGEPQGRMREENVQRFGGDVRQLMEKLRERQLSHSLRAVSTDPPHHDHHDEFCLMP
Assay: 2D 1H-15N HSQC NMR titration (chemical shift perturbation)
Format: binding
Source text: 2D 1H-15N HSQC NMR titration (chemical shift perturbation) on Bex1 (recombinant Bex1 protein) | The peak shift of Bex1 was GTP concentration-dependent with the dissociation constant (Kd) equal to […]

Kd: 244 ± 98 µM
SMILES: Nc1nc2c(ncn2[C@@H]2O[C@H](COP(=O)(O)OP(=O)(O)OP(=O)(O)O)[C@@H](O)[C@H]2O)c(=O)[nH]1 [GTP]
